The test system of experiment [1] is DSS induced sub-acute colitis. The class given is in vivo. Set-up: DAI (disease active index) / FOB (fecal occult blood) / Hist score (histological score): scale not given here; Weight / Col Length (colon length): unit not given here. An excerpt: This invention also disclosed the used of R-salbutamol for treatment of sub acute or chronic phases of IBD. In one embodiment, IBD was induced by DSS as mentioned above, along with the treatment of R-salbutamol, at day 7th, DSS was removed and replaced with drinking water for additional 2 weeks. The disease active index (DAI) of mice was examined and evaluated periodically. The mice were scarified for pathological and histological evaluations at day of 23rd. In DSS induce IBD mice, there were significant loss of weight and fecal occult blood at day 14th and 22nd. The overall condition of colitis was severe although there was slightly improvement comparing the day 7th. The colon-rector length was significant shortened, and histological score were significant higher from control. In mice with DSS induced colitis, there were significant mononuclear leucocytes infiltration, few newly grew crypts with architectural disarray, denegation of epithelia, mucosa aberrant. There was also deep mucosal lymphocytosis, destruction of lamina propria and sometimes, transmural inflammation.
Same as example 1, except • 1), Three weeks' study with one week treatment.
DSS and all the treatment was removed and replaced with drinking water at the end of 1st week. Mice were given drink water and food ad libitum for additional 2 weeks.

A further experiment relates to TNBS-induced colitis. Briefly: TNBS-induced colitis (model for Crohn's disease). The class given is in vivo, Male mice. An excerpt: Male mice colitis was induced by rectal co-administration of ethanol and TNBS (Trinitrobenzenesulfonic acid). Severe colitis in mice that was characterized by weight loss and diarrhea. Histologically there were loss of normal structures, visible discrete epithelioid granuloma, multiple erosive lesions, massive transmural inflammation infiltration of lymphocytes, and the loss of goblet cells. […] There was significant alleviation of lesions, few inflammatory infiltration with growing crypts and recovery mucosa epithelia along the column. […] In addition, in TNBS treated colitis mice, there were perianal symptoms: erythema, abscesses and ulcers found in some mice, which may lead to perianal fissures or fistulas. […] The therapeutically effects of R-salbuterol, R-clenbuterol and R-bambuterol on the symptoms in TNBS induced Crohn's disease has never been reported in prior art.

Experiment [2] concerns knee joints (articular cartilage, meniscus). Nature of the experiment: Damage of knee joints in DSS induced IBD mice. It counts as in vivo. The settings on record: compared with untreated DSS mice. An excerpt:
In one embodiment, in DSS induced IBD mice, there was also a damage of knee joints. The articular cartilage structure became thinner and partially destroyed. The chondrocytes were degenerated, decreased and clustered. The meniscuses were damaged and lost its structural integrity. In X-ray, the layer of articular cartilage was thinner and bone structure was decreased. […] The articular cartilage and bone structure increased toward normal.

The test system of experiment [3] is IMQ-induced Psoriasis-Like Skin lesions. Briefly: IMQ-induced psoriasis-like skin lesions. It counts as in vivo, mice. On the procedure:
Mice were divided into control, psoriasis and psoriasis plus treatment groups, (n=8 in each group). Psoriasis were induced by topical application of imiquimod cream (62.5 mg) on shaved dorsal skin for seven consecutive days. Vaseline was used in control group. There were four treatment groups: three doses of R-salbutamol (R-Sal) (0.5 mg, 1 mg, 2 mg/kg) and Dexamethasone (1 mg/kg) as positive control. All the treatments and same volume of saline (in control group) were administered orally. In some experiment, R-bambuterol (long-last beta2 agonist) was used as an additional treatment group (n=3). Psoriasis Area Severity Index were used for evaluation. Each of the scores for erythema, scaling and skin thickness were measured separately and then group together as a calculative score. (FIG. 2)

A further experiment deals with Janus kinase 2 (JAK2). Briefly: JAK2 mRNA expression in psoriasis mice. The class given is in vivo. Conditions: plasma of psoriasis mice, dose-response fashion. An excerpt:
There was enhanced expression of mRNA of Janus kinase 2 (JAK2), a non-receptor tyrosine kinase, and the signal transducer and activator of transcription protein (Stat 2) in the plasma of psoriasis mice in comparison of control, Indicating an increase of JAK2 and Stat 2 proteins. These over expression of mRNA was inhibited by R-salbutamol in a dose-response fashion. (FIG. 3 left & right)

Experiment [4] relates to hemorrhoid inflammation symptoms. Briefly: Hemorrhoid inflammation symptoms, oral or topical. It counts as in vivo. The settings on record: given either orally or topically. An excerpt:
These perianal pathological changes somewhat similar to hemorrhoid inflammation symptoms. […] This new used of beta2 agonists in treatment of hemorrhoid inflammation symptoms has never been disclosed in prior art.

[5] abbreviates: one week treatment, evaluation at 23rd day, R-S, S-S 1 mg/kg, R-B, S-B 10 mg/kg.
Setting [6] is: sub-acute or chronic DSS colitis, compared with untreated DSS mice.

Structures are written as SMILES. Entries after “also recorded” stand apart in the source; their conditions may differ.

With `CC(C)(C)NC[C@H](O)c1ccc(O)c(CO)c1` [R-S, R-salbutamol], in experiment [1] (setting [5]), the “Col Length (colon length)” value is 8.2 ± 0.6, the “DAI (disease active index)” value was 4, the “FOB (fecal occult blood)” value worked out at 0.5 ± 0.5 and the “Hist score (histological score)” value was 3 ± 0.5. This compound returned a Weight in experiment [1] (setting [5]) of 114 ± 0.2. In experiment [1] (setting [6]), the “DAI, in words” value was “significant improved” and the “histological index / histological score, in words” value is “significantly ameliorated”. For the same compound, the “fecal occult blood, in words” value in experiment [1] (sub-acute or chronic DSS colitis, day 14th and 22nd, compared with untreated DSS mice) is on record as “significantly reduced”. Moreover, in the experiment on TNBS-induced colitis (TNBS treated mice), the “perianal manifestations (erythema, abscesses, ulcers)” value is “significantly alleviated”; the “submucosa fibrosis and narrowing of intestinal lumen” value is “not seen; also recorded: significantly reduce the fibrosis and the narrowing of intestinal lumen”. Further, the “weight loss, diarrhea, colon length versus normal control mice” value in the experiment with TNBS-induced colitis (oral administration) is reported as “No significant different”. The “disease condition of TNBS colitis, in words” value with TNBS-induced colitis (oral administration (R-enantiomers)) is “great ameliorated”. For the same compound, in experiment [2], the “damage of articular cartilage, meniscus and bone structure of knee joints” value is reported as “significantly ameliorated”. In addition, the “Psoriasis Area Severity score, high dose” value in experiment [3] (R-salbutamol 2.0 mg/kg oral) was “best effects for all the scores”. Moreover, the “dose dependence of Psoriasis Area Severity score” value in experiment [3] (R-salbutamol 0.5, 1, 2 mg/kg oral) is “dose-dependent response”. The “histology of psoriasis skin lesions (HE)” value in experiment [3] (dorsal skin, IMQ-induced psoriasis mice) is listed as “mostly recovered”. Moreover, the “Psoriasis Area Severity score” value in experiment [3] (oral, R-salbutamol 0.5, 1, 2 mg/kg, Dexamethasone 1 mg/kg, compared with psoriasis group) was “significantly reduced”. Further, the “over expression of mRNA of JAK2” value in the experiment on Janus kinase 2 (JAK2) is “inhibited”. The hemorrhoid inflammation symptoms entry in experiment [4] is on record as “significantly alleviated”.
